Data published in ChEMBL document CHEMBL1201862, “PubChem BioAssay data set” (2004).
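Five compound concentrations were applied to cells in 96-well plates for 48 hours; endpoints were derived by simple linear interpolation of the resulting dose-response curve. GI50 = concentration required for 50% inhibition of growth.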 The source made the active and inactive calls. Cut-off read from the data, not from the text of the source: active = GI50 up to about 1.1 µM and inactive = higher.

Experiments:
Test in all cases: growth of human tumour cells (NCI), 48 h
[1] = tested on: UACC-257
[2] = tested on: RXF 631
[3] = tested on: UO-31
[4] = tested on: U-251
[5] = tested on: NCI-H23
[6] = tested on: LXFL 529
[7] = tested on: SW-620
[8] = tested on: HOP-62
[9] = tested on: NCI-H460
[10] = tested on: DLD-1
[11] = tested on: DMS-273
[12] = tested on: K562
[13] = tested on: CCRF-CEM
[14] = tested on: EKVX
[15] = tested on: 786-0
[16] = tested on: LOX IMVI
[17] = tested on: NCI-H226
[18] = tested on: HL-60
[19] = tested on: SF-268
[20] = tested on: HOP-92
[21] = tested on: MOLT-4
[22] = tested on: SK-MEL-2
[23] = tested on: DMS-114
[24] = tested on: SK-OV-3
[25] = tested on: SNB-78
[26] = tested on: A498
[27] = tested on: KM-20L2
[28] = tested on: HCT-116
[29] = tested on: TK-10
[30] = tested on: SK-MEL-5
[31] = tested on: RXF 393
[32] = tested on: ACHN
[33] = tested on: Malme-3M
[34] = tested on: IGROV-1
[35] = tested on: OVCAR-8
[36] = tested on: OVCAR-3
[37] = tested on: NCI-H522
[38] = tested on: RPMI-8226
[39] = tested on: SF-539
[40] = tested on: XF498
[41] = tested on: UACC-62
[42] = tested on: SF-295
[43] = tested on: OVCAR-5
[44] = tested on: HCT-15
[45] = tested on: M19-MEL
[46] = tested on: HCC 2998
[47] = tested on: HT-29
[48] = tested on: SNB-75
[49] = tested on: COLO 205
[50] = tested on: KM12
[51] = tested on: M14
[52] = tested on: A549
[53] = tested on: SK-MEL-28
[54] = tested on: MDA-N
[55] = tested on: SNB-19
[56] = tested on: SN12C
[57] = tested on: OVCAR-4
[58] = tested on: SR
[59] = tested on: NCI/ADR-RES
[60] = tested on: BT-549
[61] = tested on: T47D
[62] = tested on: MDA-MB-435
[63] = tested on: MDA-MB-231
[64] = tested on: DU-145
[65] = tested on: HOP-18
[66] = tested on: Hs-578T
[67] = tested on: PC-3
[68] = tested on: MCF7
[69] = tested on: CAKI-1

C/C(CC(=O)NCCc1ccccc1)=N\NC(=O)C[n+]1ccccc1
GI50 [1]: > 100 µM (inactive)
GI50 [2]: > 100 µM (inactive)
GI50 [3]: > 100 µM (inactive)
GI50 [4]: > 100 µM (inactive)
GI50 [5]: > 100 µM (inactive)
GI50 [6]: > 100 µM (inactive)
GI50 [7]: > 100 µM (inactive)
GI50 [8]: > 100 µM (inactive)
GI50 [9]: > 100 µM (inactive)
GI50 [10]: > 100 µM (inactive)
GI50 [11]: > 100 µM (inactive)
GI50 [12]: > 100 µM (inactive)
GI50 [13]: > 10 µM (inactive)
GI50 [14]: > 100 µM (inactive)
GI50 [15]: > 100 µM (inactive)
GI50 [16]: > 100 µM (inactive)
GI50 [17]: > 100 µM (inactive)
GI50 [18]: > 100 µM (inactive)
GI50 [19]: > 100 µM (inactive)
GI50 [20]: > 100 µM (inactive)
GI50 [21]: > 100 µM (inactive)
GI50 [22]: > 100 µM (inactive)
GI50 [23]: > 100 µM (inactive)
GI50 [24]: > 100 µM (inactive)
GI50 [25]: > 100 µM (inactive)
GI50 [26]: > 100 µM (inactive)
GI50 [27]: > 100 µM (inactive)
GI50 [28]: > 100 µM (inactive)
GI50 [29]: > 100 µM (inactive)
GI50 [30]: > 100 µM (inactive)
GI50 [31]: > 100 µM (inactive)
GI50 [32]: > 100 µM (inactive)
GI50 [33]: > 100 µM (inactive)
GI50 [34]: > 100 µM (inactive)
GI50 [35]: > 100 µM (inactive)
GI50 [36]: > 100 µM (inactive)
GI50 [37]: > 100 µM (inactive)
GI50 [38]: > 100 µM (inactive)
GI50 [39]: > 100 µM (inactive)
GI50 [40]: > 100 µM (inactive)
GI50 [41]: > 100 µM (inactive)
GI50 [42]: > 100 µM (inactive)
GI50 [43]: > 100 µM (inactive)
GI50 [44]: > 100 µM
GI50 [45]: > 100 µM (inactive)
GI50 [46]: > 100 µM (inactive)
GI50 [47]: > 100 µM (inactive)
GI50 [48]: > 100 µM (inactive)
GI50 [49]: > 100 µM (inactive)
GI50 [50]: > 100 µM (inactive)
GI50 [51]: > 100 µM (inactive)
GI50 [52]: > 100 µM (inactive)
GI50 [53]: > 100 µM (inactive)

O=C(O)CCCc1ccc(N(CCCl)CCCl)cc1 [CHLORAMBUCIL]
GI50 [1]: 93.5 µM (inactive)
GI50 [2]: 86.9 µM (inactive)
GI50 [3]: 70.1 µM (inactive)
GI50 [54]: 117 µM (inactive)
GI50 [4]: 42.8 µM (inactive)
GI50 [55]: 96.2 µM (inactive)
GI50 [5]: 26.6 µM (inactive)
GI50 [6]: 95.5 µM (inactive)
GI50 [7]: 87.9 µM (inactive)
GI50 [8]: 36.1 µM (inactive)
GI50 [56]: 35.5 µM (inactive)
GI50 [9]: 14.7 µM (inactive)
GI50 [10]: 104 µM (inactive)
GI50 [11]: 23.7 µM (inactive)
GI50 [12]: 107 µM (inactive)
GI50 [13]: 6.31 µM (inactive)
GI50 [14]: 163 µM (inactive)
GI50 [15]: 30.9 µM (inactive)
GI50 [57]: 136 µM (inactive)
GI50 [16]: 40.3 µM (inactive)
GI50 [17]: 95.7 µM (inactive)
GI50 [18]: 8.22 µM (inactive)
GI50 [19]: 34.9 µM (inactive)
GI50 [58]: 5.98 µM (inactive)
GI50 [20]: 63.7 µM (inactive)
GI50 [59]: 56.9 µM (inactive)
GI50 [21]: 5.78 µM (inactive)
GI50 [22]: 155 µM (inactive)
GI50 [60]: 112 µM (inactive)
GI50 [23]: 45.1 µM (inactive)
GI50 [24]: 110 µM (inactive)
GI50 [26]: 125 µM (inactive)
GI50 [61]: 55 µM (inactive)
GI50 [62]: 126 µM (inactive)
GI50 [63]: 156 µM (inactive)
GI50 [64]: 61.4 µM (inactive)
GI50 [27]: 132 µM (inactive)
GI50 [28]: 106 µM (inactive)
GI50 [29]: 171 µM (inactive)
GI50 [30]: 88.5 µM (inactive)
GI50 [31]: 33.2 µM (inactive)
GI50 [32]: 14.4 µM (inactive)
GI50 [33]: 70.3 µM (inactive)
GI50 [34]: 115 µM (inactive)
GI50 [35]: 83.2 µM (inactive)
GI50 [36]: 111 µM (inactive)
GI50 [37]: 28.4 µM (inactive)
GI50 [65]: > 81.1 µM (inactive)
GI50 [66]: 189 µM (inactive)
GI50 [38]: 76 µM (inactive)
GI50 [39]: 22.9 µM (inactive)
GI50 [67]: 99.3 µM (inactive)
GI50 [40]: 55.1 µM (inactive)
GI50 [41]: 20 µM (inactive)
GI50 [42]: 39.2 µM (inactive)
GI50 [43]: 97.1 µM (inactive)
GI50 [44]: 92.7 µM
GI50 [45]: 87.7 µM (inactive)
GI50 [46]: 103 µM (inactive)
GI50 [47]: 130 µM (inactive)
GI50 [48]: 54 µM (inactive)
GI50 [49]: 115 µM (inactive)
GI50 [50]: 143 µM (inactive)
GI50 [68]: 32.8 µM (inactive)
GI50 [51]: 62.7 µM (inactive)
GI50 [52]: 61.7 µM (inactive)
GI50 [69]: 17.3 µM (inactive)
GI50 [53]: 106 µM (inactive)

CCOC(=O)Oc1cc2c(c(OC)c1OC)-c1ccc(OC)c(=O)cc1C(NC(C)=O)CC2 (configuration not stated)
GI50 [1]: 0.0146 µM (active)
GI50 [2]: 0.0565 µM (active)
GI50 [3]: 5.35 µM (inactive)
GI50 [54]: < 0.01 µM (active)
GI50 [4]: 0.0212 µM (active)
GI50 [55]: 0.0277 µM (active)
GI50 [5]: 0.0187 µM (active)
GI50 [6]: < 0.0162 µM (active)
GI50 [7]: < 0.0122 µM (active)
GI50 [8]: 0.0509 µM (active)
GI50 [56]: 0.034 µM (active)
GI50 [9]: 0.0468 µM (active)
GI50 [11]: < 0.01 µM (active)
GI50 [12]: 0.0138 µM (active)
GI50 [13]: < 0.0122 µM (active)
GI50 [14]: 19.1 µM (inactive)
GI50 [15]: 0.0345 µM (active)
GI50 [57]: 11.2 µM (inactive)
GI50 [16]: 0.0153 µM (active)
GI50 [17]: 0.183 µM (active)
GI50 [18]: < 0.0118 µM (active)
GI50 [19]: 0.0197 µM (active)
GI50 [58]: < 0.01 µM (active)
GI50 [20]: 0.0968 µM (active)
GI50 [59]: 9.33 µM (inactive)
GI50 [21]: 0.0179 µM (active)
GI50 [22]: 0.0123 µM (active)
GI50 [23]: 0.0137 µM (active)
GI50 [24]: 0.114 µM (active)
GI50 [25]: 0.0156 µM (active)
GI50 [26]: 0.0541 µM (active)
GI50 [61]: > 100 µM (inactive)
GI50 [62]: < 0.01 µM (active)
GI50 [63]: 0.0281 µM (active)
GI50 [64]: 0.1 µM (active)
GI50 [27]: 0.0416 µM (active)
GI50 [28]: 0.0149 µM (active)
GI50 [29]: 3.78 µM (inactive)
GI50 [30]: 0.0116 µM (active)
GI50 [31]: < 0.0137 µM (active)
GI50 [32]: 0.398 µM (active)
GI50 [33]: < 0.015 µM (active)
GI50 [34]: 0.0208 µM (active)
GI50 [35]: 0.0286 µM (active)
GI50 [36]: 0.0166 µM (active)
GI50 [37]: 0.014 µM (active)
GI50 [66]: 0.0619 µM (active)
GI50 [38]: 0.0141 µM (active)
GI50 [39]: 0.0138 µM (active)
GI50 [67]: 0.0278 µM (active)
GI50 [40]: 0.0432 µM (active)
GI50 [41]: 0.0156 µM (active)
GI50 [42]: 0.0574 µM (active)
GI50 [43]: 2.26 µM (inactive)
GI50 [44]: 0.252 µM
GI50 [45]: < 0.0164 µM (active)
GI50 [46]: 0.0176 µM (active)
GI50 [47]: 0.0187 µM (active)
GI50 [48]: 0.0119 µM (active)
GI50 [49]: 0.0185 µM (active)
GI50 [50]: 0.0172 µM (active)
GI50 [68]: < 0.01 µM (active)
GI50 [51]: 0.0218 µM (active)
GI50 [52]: 0.168 µM (active)
GI50 [69]: 0.239 µM (active)
GI50 [53]: < 0.215 µM (active)
